Results: patent US20160047819A1, “METHOD FOR DIAGNOSING VAGINAL INFECTIONS” (priority 2013, published 2016)

Test system: microbial proteins in vaginal fluid
Experiment: MS/MS proteomic analysis of vaginal fluid pools before and after rifaximin/placebo treatment: microbial proteins
Format: in vivo
Procedure: Proteomic analysis was performed on 9 pools of vaginal isolates, grouped according to the status of the BV infection: • H pool (from 41 healthy women); BV pool (from 39 BV-affected women); • A-R pool (from 2 women who were in remission after rifaximin treatment-group A); • A-N pool (from 8 women who were not in remission after rifaximin treatment-group A); • B-R pool (from 5 women who were in remission after rifaximin treatment-group B); • B-N pool (from 5 women who were not in remission after rifaximin treatment-group B); • C-R pool (from 4 women who were in remission after rifaximin treatment-group C); • C-N (from 5 women who were not in remission after rifaximin treatment-group C); • D-N (from 10 women who were not in remission after placebo treatment-group D). Scheme of the vaginal fluids collected for testing the diagnostic method is represented in FIG. 1.
In these figures are reported the peptides in the fractionated pools of healthy women, women affected by BV and peptides of women treated with rifaximin. The treatment with rifaximin was at dosage of 100 mg/day for 5 days; (remission, A-R; no remission, A-N), 25 mg/5 days (remission, B-R; no remission, B-N), 100 mg/2 days (remission, C-R; no remission, C-N), and placebo for 5 days (D-N). Two types of comparisons were carried out: (i) between fractionated pools of proteins from vaginal fluid of healthy women (HF) versus fractionated pool of proteins from vaginal fluid of women affected by bacterial vaginosis (BVF); (ii) between whole pools of proteins from vaginal fluid of women affected by BV treated by administering different doses of rifaximin or placebo before (BV) and after (A-R, A-N, B-R, B-N, C-R, C-N, D-N) treatment. Fractioned pools of proteins are obtained, e.g., by separating the proteins by separation on membrane filtration with different membrane porosity, prior to MS/MS analysis.
Nine volumes of acetone: HCl (10:1) were added to the supernatant of the vaginal rinsing and proteins were precipitated by centrifuging at 12000 g for 10 min. The protein pellet was dissolved in 1 mL of 70% ethanol and the sample was spun at 12000 g for 10 min. One mL of acetone was added and the proteins were further precipitated by centrifugation at 12000 g for 5 min. After removing supernatant, pellet was dried by SpeedVac concentrator (Thermo Savant ISS110, Thermo Fisher Scientific, Waltham, Mass.) and then stored at −20° C.
Protein extract was quantified using the 2-D Quant Kit (GE Healthcare, Uppsala, Sweden) according to the manufacturer's instructions.
Patients who were diagnosed for BV at the study visit V1 were included in a multicentre, double-blind, randomised, placebo-controlled study (EudraCT: 2009-011826-32), that was performed to compare the efficacy of different doses of rifaximin vaginal tablets versus placebo for the treatment of BV. The patients underwent a randomisation visit and were distributed into 4 treatment groups: group A received 100 mg rifaximin vaginal tablet once daily for 5 days (n=10), group B received 25 mg rifaximin vaginal tablet once daily for 5 days (n=10), group C received 100 mg rifaximin vaginal tablet once daily for the first 2 days and placebo vaginal tablet for the remaining 3 days (n=9), group D received placebo vaginal tablet once daily for 5 days (n=10). Study medication was administered intra-vaginally at bedtime. After 7 to 10 days from the end of the therapy a follow-up visit (V3) was performed. Remission was evaluated at V3 according to Amsel's criteria (<3) and Gram stain Nugent score (≦3) (Table 1).
Standardized vaginal rinsings with 2 mL of saline were collected for analysis at V1 and V3 by flushing and re-aspirating the fluid through a 22 Gauge needle in the left, central and right upper vaginal vaults. The vaginal rinsings were subsequently stored at −80° C. until use.
MS/MS analysis was carried out for H and BV pools and for the whole BV, A-R, A-N, B-R, B-N, C-R, C-N and D-N pools containing 50 μg of protein each. […]

[1] = up-regulated in all pools (rifaximin and placebo) vs BV

CO[C@H]1/C=C/O[C@@]2(C)Oc3c(C)c(O)c4c(O)c(c5c(nc6cc(C)ccn65)c4c3C2=O)NC(=O)/C(C)=C\C=C\[C@H](C)[C@H](O)[C@@H](C)[C@@H](O)[C@@H](C)[C@H](OC(C)=O)[C@@H]1C [rifaximin]
fold change of Phosphoglycerate kinase from L. gasseri (A-R pool, over-expressed in A-N, B-R, C-R and D-N pools): −22.1 fold | expression change of Pyruvate kinase from L. delbrueckii subsp. bulgaricus (affected only in A-R pool): 1.5 ratio | expression change of Triosephosphate isomerase from L. delbrueckii subsp. bulgaricus (affected only in B-N pool): 2.4 ratio | median expression change of trigger factor from L. brevis (down-regulated in all pools after rifaximin treatment): −2.5 ratio | Ratio X/H Ribosome-recycling factor OS = Bifidobacterium longum subsp. infantis (B7GQS1) (pool A-N after treatment): −1.2 | Ratio X/H Trigger factor OS = Lactobacillus brevis (Q03QN6) (pool A-N after treatment): −2.4 | Ratio X/H Triosephosphate isomerase OS = Lactobacillus delbrueckii subsp. bulgaricus (Q1GB25) (pool A-N after treatment): −1.2 | Ratio X/H UPF0082 protein SAB0618 OS = Staphylococcus aureus (Q2YSR2) (pool A-N after treatment): 5.6 | Ratio X/H Uncharacterized membrane protein YAL018C OS = Saccharomyces cerevisiae (P31379) (pool A-N after treatment): 2.0 | Ratio X/H Uncharacterized protein yphG OS = Escherichia coli (P76585) (pool A-N after treatment): −4.3 | Ratio X/H Ribosome-recycling factor OS = Bifidobacterium longum subsp. infantis (B7GQS1) (pool A-R after treatment): −4.5 | Ratio X/H Trigger factor OS = Lactobacillus brevis (Q03QN6) (pool A-R after treatment): −3.8 | Ratio X/H Triosephosphate isomerase OS = Lactobacillus delbrueckii subsp. bulgaricus (Q1GB25) (pool A-R after treatment): −1.3 | Ratio X/H UPF0082 protein SAB0618 OS = Staphylococcus aureus (Q2YSR2) (pool A-R after treatment): 9.3 | Ratio X/H Uncharacterized membrane protein YAL018C OS = Saccharomyces cerevisiae (P31379) (pool A-R after treatment): 1.1 | Ratio X/H Uncharacterized protein yphG OS = Escherichia coli (P76585) (pool A-R after treatment): 1.1 | Ratio X/H Ribosome-recycling factor OS = Bifidobacterium longum subsp. infantis (B7GQS1) (pool B-N after treatment): −1.1 | Ratio X/H Trigger factor OS = Lactobacillus brevis (Q03QN6) (pool B-N after treatment): −2.1 | Ratio X/H Triosephosphate isomerase OS = Lactobacillus delbrueckii subsp. bulgaricus (Q1GB25) (pool B-N after treatment): 2.4 | Ratio X/H UPF0082 protein SAB0618 OS = Staphylococcus aureus (Q2YSR2) (pool B-N after treatment): 9.2 | Ratio X/H Uncharacterized membrane protein YAL018C OS = Saccharomyces cerevisiae (P31379) (pool B-N after treatment): 2.0 | Ratio X/H Uncharacterized protein yphG OS = Escherichia coli (P76585) (pool B-N after treatment): −1.1 | Ratio X/H Ribosome-recycling factor OS = Bifidobacterium longum subsp. infantis (B7GQS1) (pool B-R after treatment): −2.4 | Ratio X/H Trigger factor OS = Lactobacillus brevis (Q03QN6) (pool B-R after treatment): −2.2 | Ratio X/H Triosephosphate isomerase OS = Lactobacillus delbrueckii subsp. bulgaricus (Q1GB25) (pool B-R after treatment): −1.2 | Ratio X/H UPF0082 protein SAB0618 OS = Staphylococcus aureus (Q2YSR2) (pool B-R after treatment): 10.5 | Ratio X/H Uncharacterized membrane protein YAL018C OS = Saccharomyces cerevisiae (P31379) (pool B-R after treatment): 2.9 | Ratio X/H Uncharacterized protein yphG OS = Escherichia coli (P76585) (pool B-R after treatment): 1.1 | Ratio X/H Ribosome-recycling factor OS = Bifidobacterium longum subsp. infantis (B7GQS1) (pool C-N after treatment): 1.0 | Ratio X/H Trigger factor OS = Lactobacillus brevis (Q03QN6) (pool C-N after treatment): −3.2 | Ratio X/H Triosephosphate isomerase OS = Lactobacillus delbrueckii subsp. bulgaricus (Q1GB25) (pool C-N after treatment): −1.3 | Ratio X/H UPF0082 protein SAB0618 OS = Staphylococcus aureus (Q2YSR2) (pool C-N after treatment): 5.9 | Ratio X/H Uncharacterized membrane protein YAL018C OS = Saccharomyces cerevisiae (P31379) (pool C-N after treatment): 4.2 | Ratio X/H Uncharacterized protein yphG OS = Escherichia coli (P76585) (pool C-N after treatment): −1.1 | Ratio X/H Ribosome-recycling factor OS = Bifidobacterium longum subsp. infantis (B7GQS1) (pool C-R after treatment): −2.8 | Ratio X/H Trigger factor OS = Lactobacillus brevis (Q03QN6) (pool C-R after treatment): −2.7 | Ratio X/H Triosephosphate isomerase OS = Lactobacillus delbrueckii subsp. bulgaricus (Q1GB25) (pool C-R after treatment): −1.4 | Ratio X/H UPF0082 protein SAB0618 OS = Staphylococcus aureus (Q2YSR2) (pool C-R after treatment): 8.9 | Ratio X/H Uncharacterized membrane protein YAL018C OS = Saccharomyces cerevisiae (P31379) (pool C-R after treatment): −1.6 | Ratio X/H Uncharacterized protein yphG OS = Escherichia coli (P76585) (pool C-R after treatment): 1.0 | median down-regulation of Malate dehydrogenase from S. cerevisiae (pools after treatment vs BV): −2.3 fold | median expression change of enolases from L. acidophilus, L. delbrueckii subsp. bulgaricus, L. gasseri (trend of down-regulation in response to antibiotic administration): −2.7 ratio | median expression change of Phosphoglycerate kinase from U. parvum [1]: 5.1 ratio | median expression change of UPF0082 protein SAB0618 from S. aureus [1]: 8.9 ratio
